The values that follow come from US20240218156A1, “PLASTICIZER, PLASTIC COMPOSITION, AND PLASTIC PRODUCT” (LARGAN MEDICAL CO., LTD., priority 2022, published 2024).

Molecules are shown by their SMILES.

In series [1] the test system is mouse lung fibroblast (L929 cell line). Nature of the series: Cell viability test (ISO10993-5, MTT assay). The format is cell-based. Conditions: for cell viability: L929, 24 hours, 37° C. The source says: The 1st example is used as the experimental group to perform the cell viability test. Specifically, according to ISO10993-5 standard method, the mouse lung fibroblast (L929 cell line) is used as the test cell, and the composition of the test culture medium is 90% MEM culture medium, 10% fetal bovine serum (FBS) and additional 1% antibiotic (penicillin-streptomycin). Then, the ethanol with the final concentration of 0.1% is used as the solvent to dissolve the tested plasticizer in the test culture medium. The control group of the cell viability test is the test culture solution only added the ethanol with the final concentration of 0.1%. In the experimental group, the plasticizer of the 1st example with the concentration of 0.1 mM or 0.3 mM is added to the test culture solution, respectively, and the concentration of the ethanol in the test culture solution of the control group and the experimental group are the same, the test condition is the 37° C. environment containing 5% carbon dioxide placed for 24 hours. After the test finished, each group is tested with MTT assay, the detection wavelength is the optical density at 570 nm (OD570) and the optical density at 650 nm (OD650), and the cell viability is calculated accordingly. The formula for calculating the cell viability is: (the average value of OD570 and OD650 in the experimental group)/(the average value of three repetitions of (the average value of OD570 and OD650 in the control group))×100%. The cell viability is used to determine whether the group has the cytotoxicity, and when the cell viability is more than 70%, it is considered that this group is non-cytotoxic.

The nature of series [2]: Pyrolysis temperature of the plasticizer. The format is physicochemical. The protocol: According to the plasticizer of the present disclosure, when a pyrolysis temperature of the plasticizer is Pt, the following condition can be satisfied: 100° C.≤Pt. Therefore, it is favorable for stabilizing the structure of the plasticizer at the high temperature by the high pyrolysis temperature of the plasticizer. Furthermore, the following condition can be satisfied: 120° C.≤Pt. Furthermore, the following condition can be satisfied: 150° C.≤Pt. Furthermore, the following condition can be satisfied: 170° C.≤Pt. Furthermore, the following condition can be satisfied: 180° C.≤Pt.

Take `CCC(CC)COC(=O)CC(N)C(=O)OCC(CC)CC` (stereo not shown) [1st example, 1,4-bis(2-ethylbutyl) 2-aminobutanedioate]: the “toxic to the cells” value in series [1] (0.3 mM) was “will not be toxic to the cells”. The cell viability is given as 99.10% in series [1] (plasticizer 0.1 mM) and 81.90% in series [1] (plasticizer 0.3 mM). Besides, in series [2], the “Pt (º C.)” value is reported as 200 º C.
